Drawing on PubChem BioAssay AID248 (DTP/NCI, 2004), this text covers T/C for 6 compounds.

Inconclusive results and toxic doses are left out.

This assay has as its system L1210 leukemia ip in BDF1 mice, survival T/C. The assay can be described thus: NCI In Vivo Anticancer Drug Screen. Data for tumor model L1210 Leukemia (intraperitoneal) in B6D2F1 (BDF1) mice. The settings on record: endpoint: mean survival time, higher = longer survival. The method in brief: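 Value reflects the ratio of survival in compound-treated mice to survival in vehicle-treated controls, with both groups carrying the same transplanted tumor.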

Take `O=c1[nH]cc(F)c(=O)n1C1OC(CO)C(O)C1O` (stereo unspecified): the T/C reads like this: (dose: 0.78 mg/kg/injection, schedule: Q01DX009 (ip), vehicle: saline) 124 % of control; (dose: 1.5 mg/kg/injection, schedule: Q01DX009 (ip), vehicle: saline) 159 % of control; (dose: 1.56 mg/kg/injection, schedule: Q01DX009 (ip), vehicle: saline) 152 % of control; (dose: 3.12 mg/kg/injection, schedule: Q01DX005 (ip), vehicle: saline) 167 % of control; (dose: 3.12 mg/kg/injection, schedule: Q01DX009 (ip), vehicle: saline) 173 % of control; (dose: 6.0 mg/kg/injection, schedule: Q01DX009 (ip), vehicle: saline) 97 % of control. The T/C is, setting by setting: (dose: 6.25 mg/kg/injection, schedule: Q01DX005 (ip), vehicle: saline) 171 % of control; (dose: 6.25 mg/kg/injection, schedule: Q01DX009 (ip), vehicle: saline) 204 % of control; (dose: 12.5 mg/kg/injection, schedule: Q01DX009 (ip), vehicle: saline) 231 % of control; (dose: 18.8 mg/kg/injection, schedule: Q04DX003 (ip), vehicle: saline) 107 % of control; (dose: 25.0 mg/kg/injection, schedule: Q01DX009 (ip), vehicle: saline) 118 % of control; (dose: 25.0 mg/kg/injection, schedule: Q04DX003 (ip), vehicle: saline) 105 % of control. The T/C is, setting by setting: (dose: 37.5 mg/kg/injection, schedule: Q04DX003 (ip), vehicle: saline) 110 % of control; (dose: 50.0 mg/kg/injection, schedule: Q04DX003 (ip), vehicle: saline) 110 % of control; (dose: 178.0 mg/kg/injection, schedule: Q01DX009 (ip), vehicle: saline) 165 % of control; (dose: 267.0 mg/kg/injection, schedule: Q01DX009 (ip), vehicle: saline) 163 % of control; (dose: 400.0 mg/kg/injection, schedule: Q01DX009 (ip), vehicle: saline) 150 % of control; (dose: 600.0 mg/kg/injection, schedule: Q01DX009 (ip), vehicle: saline) 171 % of control.

Regarding `CCCCCCCCCCCCCSCCCCCCSCCCCCCCCCCCCC`, the T/C was 89 % of control (dose: 100.0 mg/kg/injection, schedule: Q01DX001 (ip), vehicle: Klucel (hydroxypropylcellulose) (HPC)); 96 % of control (dose: 200.0 mg/kg/injection, schedule: Q01DX001 (ip), vehicle: Klucel (hydroxypropylcellulose) (HPC)); 98 % of control (dose: 400.0 mg/kg/injection, schedule: Q01DX001 (ip), vehicle: Klucel (hydroxypropylcellulose) (HPC)).

For the compound `CCC12C=CCN3CCC4(C(=C(C(=O)OC)C1)Nc1cc(OC)ccc14)C32` (stereo unspecified), the T/C by setting is: (dose: 100.0 mg/kg/injection, schedule: Q04DX002 (ip), vehicle: saline) 110 % of control; (dose: 200.0 mg/kg/injection, schedule: Q04DX002 (ip), vehicle: saline) 121 % of control.

Consider `CC(=O)OC1CC(OC2C(O)CC(OC3C(O)CC(OC4CCC5(C)C(CCC6C5CC(O)C5(C)C(C7=CC(=O)OC7)CCC65O)C4)OC3C)OC2C)OC(C)C1OC1OC(CO)C(O)C(O)C1O` (stereo unspecified), for which the T/C was 100 % of control (dose: 50.0 mg/kg/injection, schedule: Q01DX001 (sc), vehicle: steriod suspending solution); 95 % of control (dose: 75.0 mg/kg/injection, schedule: Q01DX001 (ip), vehicle: other); 109 % of control (dose: 100.0 mg/kg/injection, schedule: Q01DX001 (sc), vehicle: steriod suspending solution); 97 % of control (dose: 150.0 mg/kg/injection, schedule: Q01DX001 (ip), vehicle: other); 103 % of control (dose: 200.0 mg/kg/injection, schedule: Q01DX001 (sc), vehicle: steriod suspending solution); 93 % of control (dose: 300.0 mg/kg/injection, schedule: Q01DX001 (ip), vehicle: other). Moreover, the T/C (dose: 400.0 mg/kg/injection, schedule: Q01DX001 (sc), vehicle: steriod suspending solution) is 105 % of control.

Consider `CCCCCCCCCCCCCCCCCCn1cnc2c(N)ncnc21`, for which the T/C was 105 % of control (dose: 12.5 mg/kg/injection, schedule: Q01DX005 (ip), vehicle: other); 97 % of control (dose: 25.0 mg/kg/injection, schedule: Q01DX005 (ip), vehicle: other); 102 % of control (dose: 50.0 mg/kg/injection, schedule: Q01DX005 (ip), vehicle: other); 103 % of control (dose: 100.0 mg/kg/injection, schedule: Q01DX005 (ip), vehicle: other); 108 % of control (dose: 200.0 mg/kg/injection, schedule: Q01DX005 (ip), vehicle: other).

For `CCN(CC)CCCNc1ccnc2cc(Cl)ccc12`, the T/C (dose: 100.0 mg/kg/injection, schedule: Q01DX001 (ip), vehicle: saline) was 94 % of control.
